“Also recorded” adds a separate entry of the source.
Key:
[1] = tested on: multiple myeloma cell lines; assay: Anti-cancer activity in a panel of multiple myeloma cell lines; type: cell-based; details: eight of twelve were responsive, read-out: mean IC50 among responsive lines
[2] = tested on: mantel cell lymphoma (MCL) cell lines; assay: Anti-cancer activity in MCL cell lines; type: cell-based; details: four of six lines tested were responsive; read-out: mean IC50 among the responsive lines
[3] = tested on: activated B-cell DLBCL lines; assay: Anti-cancer activity in ABC-DLBCL cell lines; type: cell-based; details: three of six responsive, read-out: mean IC50 amongst the responsive lines
[4] = tested on: hematological cancer cell lines; assay: Anti-proliferative activity in hematological cancer cell lines (whole panel); type: cell-based; details: in multiple cell lines, 96 hours
[5] = tested on: 8 multiple myeloma cell lines; assay: Growth of 8 multiple myeloma cell lines (CellTiter-Glo, 96 hour); type: cell-based
[6] = target: G1 to S Phase Transition 1 (GSPT1) (Homo sapiens, UniProt P15170); assay: Targeted cell-based assay for GSPT1; details: up to 10 μM
G1 to S Phase Transition 1 (GSPT1), sequence (Q96SW2 whole entry partner, species assumed): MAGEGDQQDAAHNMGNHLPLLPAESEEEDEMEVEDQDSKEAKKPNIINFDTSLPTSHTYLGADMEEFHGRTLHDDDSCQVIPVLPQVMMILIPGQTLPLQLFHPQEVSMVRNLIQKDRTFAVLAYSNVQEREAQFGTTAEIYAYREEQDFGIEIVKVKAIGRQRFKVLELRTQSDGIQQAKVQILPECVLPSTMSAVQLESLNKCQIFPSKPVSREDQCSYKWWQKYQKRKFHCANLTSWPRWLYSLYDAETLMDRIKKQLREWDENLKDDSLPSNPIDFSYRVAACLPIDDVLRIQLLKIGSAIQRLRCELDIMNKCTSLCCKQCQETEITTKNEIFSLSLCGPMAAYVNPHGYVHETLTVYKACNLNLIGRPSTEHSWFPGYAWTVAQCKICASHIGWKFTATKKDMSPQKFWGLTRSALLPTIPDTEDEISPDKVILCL
G1 to S Phase Transition 1 (GSPT1), sequence (Q16531 2-1140 partner limits assumed, species assumed): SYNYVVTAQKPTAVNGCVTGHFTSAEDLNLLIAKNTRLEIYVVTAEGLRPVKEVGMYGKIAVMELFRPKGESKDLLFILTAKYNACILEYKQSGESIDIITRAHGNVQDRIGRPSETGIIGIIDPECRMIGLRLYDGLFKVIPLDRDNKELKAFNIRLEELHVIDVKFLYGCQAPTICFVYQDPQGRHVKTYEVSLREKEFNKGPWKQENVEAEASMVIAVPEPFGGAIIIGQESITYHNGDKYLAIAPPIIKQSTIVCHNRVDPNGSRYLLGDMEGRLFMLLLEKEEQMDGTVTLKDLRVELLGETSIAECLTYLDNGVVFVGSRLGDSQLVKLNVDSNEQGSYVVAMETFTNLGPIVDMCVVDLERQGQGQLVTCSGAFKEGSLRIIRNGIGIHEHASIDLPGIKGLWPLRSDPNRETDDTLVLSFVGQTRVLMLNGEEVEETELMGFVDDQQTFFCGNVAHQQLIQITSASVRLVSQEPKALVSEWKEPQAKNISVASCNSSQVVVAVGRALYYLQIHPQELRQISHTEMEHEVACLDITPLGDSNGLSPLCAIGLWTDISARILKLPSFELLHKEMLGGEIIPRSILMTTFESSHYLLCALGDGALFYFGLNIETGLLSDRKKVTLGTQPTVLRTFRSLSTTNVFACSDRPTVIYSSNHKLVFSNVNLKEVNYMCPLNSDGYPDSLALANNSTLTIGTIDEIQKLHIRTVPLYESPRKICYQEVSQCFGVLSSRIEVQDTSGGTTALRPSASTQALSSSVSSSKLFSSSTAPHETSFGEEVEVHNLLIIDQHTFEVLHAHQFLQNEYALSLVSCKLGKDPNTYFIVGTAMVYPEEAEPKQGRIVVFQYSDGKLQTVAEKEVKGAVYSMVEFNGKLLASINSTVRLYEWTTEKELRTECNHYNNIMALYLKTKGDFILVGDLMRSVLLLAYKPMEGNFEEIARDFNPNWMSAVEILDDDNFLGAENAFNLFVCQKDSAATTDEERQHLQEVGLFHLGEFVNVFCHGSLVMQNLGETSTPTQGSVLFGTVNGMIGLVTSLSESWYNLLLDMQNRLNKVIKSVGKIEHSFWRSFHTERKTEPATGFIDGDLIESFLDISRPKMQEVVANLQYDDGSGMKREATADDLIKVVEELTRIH
G1 to S Phase Transition 1 (GSPT1), sequence (P15170 whole entry, species assumed): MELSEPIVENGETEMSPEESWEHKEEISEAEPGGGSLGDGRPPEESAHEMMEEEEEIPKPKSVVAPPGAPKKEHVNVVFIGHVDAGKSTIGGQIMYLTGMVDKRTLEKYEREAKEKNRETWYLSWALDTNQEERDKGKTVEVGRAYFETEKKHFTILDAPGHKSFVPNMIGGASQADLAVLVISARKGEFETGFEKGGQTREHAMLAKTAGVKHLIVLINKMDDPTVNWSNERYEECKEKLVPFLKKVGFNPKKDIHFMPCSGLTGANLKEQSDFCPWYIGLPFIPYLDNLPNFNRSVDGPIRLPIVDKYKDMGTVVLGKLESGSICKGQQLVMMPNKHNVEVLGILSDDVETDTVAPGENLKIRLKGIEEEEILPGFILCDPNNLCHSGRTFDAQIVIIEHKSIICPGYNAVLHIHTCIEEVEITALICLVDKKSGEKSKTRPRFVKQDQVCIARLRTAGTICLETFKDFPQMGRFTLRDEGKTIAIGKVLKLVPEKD

[7] = tested on: IKZF1/3; assay: Ex vivo IKZF1/3 degradation in PBMC, cynomolgus monkey; type: cell-based; details: cynomolgus monkey cells
Procedure: IKZF1/3 are not degraded in mouse cells treated with thalidomide or its IMiD® analogs because of a single amino acid difference in mouse cereblon compared to human cereblon that causes steric hindrance and prevents recruitment of IKZF1/3. Ex vivo studies were performed in peripheral blood cells (PBMC) of mice, rats, dogs, and monkeys to identify relevant species for IND enabling-toxicity studies based on the degree of IKZF1 degradation by Compound 1. IKZF1 was not degraded in mouse or rat cells by Compound 1, thus, while rat could not be considered a pharmacologically relevant species for human risk assessment, it was chosen as the rodent species for toxicological studies because it is widely used in toxicity testing and a substantial historical toxicology database is available. […] Therefore, cynomolgus monkey was chosen for non-rodent toxicological studies.

[8] = tested on: RPMI-8226 tumors; assay: RPMI-8226 multiple myeloma xenograft, CB17 SCID mice (Example 13); type: in vivo
Procedure: Compound 1 efficacy in two multiple myeloma cell lines (NC-H929) and (RPMI-8226) was evaluated at four different doses: 3 μg/kg, 10 μg/kg, 30 μg/kg, and 100 μg/kg. Compound 1 was administered QD (every day) orally (PO). […]
Statistical analysis was performed using two-way analysis of variance (ANOVA). Data are expressed as MTV±SEM.

[9] = tested on: H929 PomR tumors; assay: Pomalidomide resistant H929 PomR xenograft; type: in vivo, mice; details: 100 μg/kg/day PO
Source text: Data are expressed as MTV±SEM.

[10] = tested on: RPMI-8226 tumors; assay: RPMI-8226 xenograft, crossover from pomalidomide to Compound 1; type: in vivo, mice; details: 100 μg/kg/day
Procedure: Vehicle treated animals were treated for 28 days until tumors reached a MTV of 2211 mm^3. […] Data are expressed as MTV±SEM.
Tumor growth was monitored throughout the study. […] Measurements were twice weekly. The health of the mice was monitored, and noteworthy clinical observations were recorded. Acceptable toxicity was defined as a group's mean BW loss of less than 20% during the study and not more than one treatment related death among ten treated animals, or 10%.
Animals were weighed on a twice weekly schedule.

[11] = tested on: IKZF1 and IRF-4; assay: KI-JK ALCL tumor pharmacodynamic study, western blot (Example 17); type: in vivo, mice; details: single dose, 6-hour and 24-hour timepoint
Procedure: A pharmacodynamic study was also conducted in female NOD SCID mice bearing KI-JK ALCL tumors. […] Once tumors reached a volume of 450 mm^3 they were stratified into 3 treatment groups, consisting of 4 mice each.
Mice were sacrificed and tumors harvested at 6 and 24 hours post single dose. Tumors were mechanically homogenized, and protein extracted using RIPA buffer (Sigma Aldrich). Protein concentration was quantified using a Pierce™ BCA Protein Assay Kit, samples were reduced, and equal protein amounts were then loaded onto a western blot gel for analysis. Samples were analyzed for IKZF1 (Invitrogen, PA5-23728) and IRF-4 (CST, 15106) expression. Data is expressed as percentage of IKZF1 or IRF-4 in comparison to the vehicle control and normalized to GAPDH levels to control for protein loading. Error bars represent ±SEM values.

[12] = tested on: OCI-LY10; assay: Anti-proliferative activity, 96 hours; details: Homo sapiens, OCI-Ly10, 96 h
[13] = tested on: SU-DHL-2; assay: Anti-proliferative activity, 96 hours; details: Homo sapiens, SU-DHL-2, 96 h
[14] = tested on: Pfeiffer; assay: Anti-proliferative activity, 96 hours; details: Homo sapiens
[15] = tested on: WSU-DLCL2; assay: Anti-proliferative activity, 96 hours; details: Homo sapiens, WSUDLCL2, 96 h
[16] = tested on: SU-DHL-5; assay: Anti-proliferative activity, 96 hours; details: Homo sapiens, SU-DHL-5, 96 h
[17] = tested on: SU-DHL-1; assay: Anti-proliferative activity, 96 hours; details: Homo sapiens, SU-DHL-1, 96 h
[18] = tested on: DL40; assay: Anti-proliferative activity, 96 hours
[19] = tested on: Rec-1; assay: Anti-proliferative activity, 96 hours; details: Homo sapiens, Rec1, 96 h
[20] = tested on: Jeko-1; assay: Anti-proliferative activity, 96 hours; details: Homo sapiens, JeKo-1, 96 h
[21] = tested on: MM.1S; assay: Anti-proliferative activity, 96 hours; details: Homo sapiens, MM1.S
[22] = tested on: OPM-2; assay: Anti-proliferative activity, 96 hours; details: Homo sapiens, OPM-2, 96 h
[23] = tested on: KMM-1; assay: Anti-proliferative activity, 96 hours; details: KMM-1, 96 h
[24] = tested on: RPMI 8226; assay: Anti-proliferative activity, 96 hours; details: Homo sapiens, RPMI-8226, 96 h
[25] = all eight multiple myeloma cell lines

O=C1CC[C@H](N2C(=O)c3cccc4c(Cc5ccc(CN6CCOCC6)cc5)ccc2c34)C(=O)N1 (single isomer, unassigned) [Compound 1]
IC50 [1]: 0.3 nM | IC50 [2]: 13 nM | IC50 [3]: 1.6 nM | more active than pomalidomide [4]: more than 5,000 fold | more potent than pomalidomide ([5]; across a panel of cell lines (FIG. 32)): 2-3 magnitudes | IC50 [5, 25]: < 1 nM | maximal inhibition [5, 25]: greater than 50% | more potent than pomalidomide ([5]; eight multiple myeloma cell lines): 1000 fold | effect on GSPT1 [6]: no significant effect | degrading IKZF1/3 [7]: highly effective | Statistical Significance Compared to Vehicle ([8]; 30 μg/kg PO QD): 0.01 | Statistical Significance Compared to Vehicle ([8]; 100 μg/kg PO QD): 0.009 | tumors versus pomalidomide 3000 μg/kg/day [9]: smaller | tumor volume after crossover from pomalidomide [10]: rapid tumor regression; also recorded: began to decrease | percentage of IKZF1 and IRF-4 compared to pomalidomide [11]: smaller | IC50 [12]: 0.03 nM | IC50 [13]: 4.55 nM | IC50 [14]: 1.08 nM | IC50 [15]: 2.8 nM | IC50 [16]: 6.37 nM | IC50 [17]: 0.415 nM | IC50 [18]: 0.91 nM | IC50 [19]: 0.353 nM | IC50 [20]: 43.2 nM | IC50 [21]: 0.036 nM | IC50 [22]: 0.058 nM | IC50 [23]: 0.059 nM | IC50 [24]: 0.698 nM

Source: patent US20230190760A1, “ADVANTAGEOUS THERAPIES FOR DISORDERS MEDIATED BY IKAROS OR AIOLOS” (C4 Therapeutics, Inc., priority 2020, published 2023)
